Measured values published in the NIST ThermoML archive (doi:10.1016/j.jct.2014.07.003).

Experiments:
[1] = 99 kPa, Liquid, Alternating current cell with electrodes
[2] = mn = molality of the nth substance listed, in mol/kg; conditions: 99 kPa, Liquid, Alternating current cell with electrodes

O [water]
[1]
Conditions | electrical conductivity [S/m]
288.15 K | 0.0005
293.15 K | 0.000281
298.15 K | 0.000585
303.15 K | 0.000687
308.15 K | 0.00057
313.15 K | 0.000608
318.15 K | 0.000835

O [water] + CCCCCCCCCCCC[N+](C)(C)C.[Br-]
[2], m2 = 0
Conditions | electrical conductivity [S/m]
288.15 K | 0.0005
293.15 K | 0.000281
298.15 K | 0.000585
303.15 K | 0.000687
308.15 K | 0.00057
313.15 K | 0.000608
318.15 K | 0.000835

CCCC[N+](CCCC)(CCCC)CCCC.[Br-] [tetrabutylammonium bromide] + O
[2], m1 = 0.01
Conditions | electrical conductivity [S/m]
288.15 K | 0.106
293.15 K | 0.0894
298.15 K | 0.0829
303.15 K | 0.0841
308.15 K | 0.083
313.15 K | 0.0843
318.15 K | 0.0856

CCCCC[N+](CCCCC)(CCCCC)CCCCC.[Br-] [tetrapentylammonium bromide] + O
[2], m1 = 0.01
Conditions | electrical conductivity [S/m]
288.15 K | 0.0961
293.15 K | 0.0898
298.15 K | 0.0879
303.15 K | 0.09
308.15 K | 0.0897
313.15 K | 0.0881
318.15 K | 0.0903
